In one test the test system is S. aureus HH 127. Description: MIC in vitro (Table 1), S. aureus HH 127. In kind it is cell-based. Conditions: Staphylococcus aureus, HH127, in vitro, S. aureus HH 127; read-out: MIC. From the text:
(§1) Compound names corresponding to numbers are given in the experimental section. For comparative purposes, data for cephamandole, which is 7-mandelamido-3-(1-methyltetrazol-5-ylthiomethyl)-3-cephem-4-carboxylic acid, is also given in Tables 1 and 2.

The next test deals with S. aureus SK 23390. Description: MIC in vitro (Table 1), S. aureus SK 23390. In kind it is cell-based. The following applies: Staphylococcus aureus, SK23390, in vitro, S. aureus SK 23390; read-out: MIC.
From the text: as §1

The test system of the next test is S. villaluz. The test is described as follows: MIC in vitro (Table 1), S. villaluz. In kind it is cell-based. From the text:
(§2) The compounds of Formula I have antibacterial activity against both Gram-positive and Gram-negative organisms. […] Compound names corresponding to numbers are given in the experimental section. For comparative purposes, data for cephamandole, which is 7-mandelamido-3-(1-methyltetrazol-5-ylthiomethyl)-3-cephem-4-carboxylic acid, is also given in Tables 1 and 2.

A further test deals with Strep. Faecalis HH 34358. Description: MIC in vitro (Table 1), Strep. Faecalis HH 34358. In kind it is cell-based. Conditions: Enterococcus faecalis, in vitro, Strep. Faecalis HH 34358; read-out: MIC.
From the text: as §1

Another test relates to E. coli SK 12140. Description: MIC in vitro (Table 1), E. coli SK 12140. In kind it is cell-based. The following applies: Escherichia coli, SK12140, in vitro, read-out: MIC.
From the text: as §1

In a further test the test system is E. coli HH 33779. The test is described as follows: MIC in vitro (Table 1), E. coli HH 33779. The following applies: Escherichia coli, HH33779, in vitro, E. coli HH 33779; read-out: MIC. In kind it is cell-based.
From the text: as §1

The next test concerns Kleb. pneumo. SK 4200. Description: MIC in vitro (Table 1), Kleb. pneumo. SK 4200. In kind it is cell-based. The following applies: in vitro, Kleb. pneumo. SK 4200; read-out: MIC.
From the text: as §1

A further test concerns Kleb. pneumo. SK 1200. Description: MIC in vitro (Table 1), Kleb. pneumo. SK 1200. In kind it is cell-based. Conditions: read-out: MIC.
From the text: as §1

Another test deals with Pseudo. sp. HH 63. Description: MIC in vitro (Table 1), Pseudo. sp. HH 63. In kind it is cell-based.
From the text: as §2

Another test concerns Salmonella ATCC 12176. The test is described as follows: MIC in vitro (Table 1), Salmonella ATCC 12176. In kind it is cell-based. Conditions: Salmonella, ATCC12176, in vitro.
From the text: as §2

For the next test, the system named is Shigella HH 117. The test is described as follows: MIC in vitro (Table 1), Shigella HH 117. In kind it is cell-based. Conditions: Shigella, HH117, in vitro.
From the text: as §2

Test [1] relates to Entero. aerog. ATCC 13048. The test is described as follows: MIC in vitro (Table 1), Entero. aerog. ATCC 13048. In kind it is cell-based. The following applies: in vitro, Entero. aerog. ATCC 13048; read-out: MIC.
From the text: as §1

The next test has as its system Serra. Marc. ATCC 13880. Description: MIC in vitro (Table 1), Serra. Marc. ATCC 13880. Conditions: in vitro, Serra. Marc. ATCC 13880; read-out: MIC. In kind it is cell-based.
From the text: as §1

A further test has as its system Entero. cloacae HH 31254. Description: MIC in vitro (Table 1), Entero. cloacae HH 31254. In kind it is cell-based. Conditions: Enterobacter cloacae, HH31254, in vitro, Entero. cloacae HH 31254; read-out: MIC.
From the text: as §1

The test system of a further test is Proteus morgani 179. Description: MIC in vitro (Table 1), Proteus morgani 179. In kind it is cell-based. Conditions: read-out: MIC.
From the text: as §1

The next test has as its system E. coli 12140. The test is described as follows: In vivo mouse protection (Table 2), E. coli 12140.
From the text: as §1

In another test the test system is Kleb. pneumo. 4200. Description: In vivo mouse protection (Table 2), Kleb. pneumo. 4200.
From the text: as §1

Values after ≈ are worked out from the molar mass of the structure shown.

One may read the MIC as the least concentration at which growth counts as inhibited. Broadly, the ED50 is the dose that gives a 50% effect, or the effect in half of the subjects. Read a high ED50 as a need for a large dose. For the compound `Cn1nnnc1SCC1=C(C(=O)O)N2C(=O)C(NC(=O)C(O)c3ccccc3)[C@H]2SC1` (stereo partly shown) [cephamandole, 7-mandelamido-3-(1-methyltetrazol-5-ylthiomethyl)-3-cephem-4-carboxylic acid, reference compound], the MIC is 1 µg/mL (≈ 2.16 µM) in the test with S. aureus HH 127; 0.6 µg/mL (≈ 1.3 µM) in the test on S. aureus SK 23390; 8 µg/mL (≈ 17.3 µM) with S. villaluz; 2.3 µg/mL (≈ 4.97 µM) in the test on Strep. Faecalis HH 34358; 1.1 µg/mL (≈ 2.38 µM) in the test with E. coli SK 12140; 2.6 µg/mL (≈ 5.62 µM) with E. coli HH 33779. Besides, the MIC in the test with Kleb. pneumo. SK 4200 is 1.1 µg/mL (≈ 2.38 µM); in the test on Kleb. pneumo. SK 1200, 0.6 µg/mL (≈ 1.3 µM); with Pseudo. sp. HH 63, greater than 200 µg/mL; in the test with Salmonella ATCC 12176, 0.6 µg/mL (≈ 1.3 µM); with Shigella HH 117, 0.2 µg/mL (≈ 0.432 µM); in test [1], 2.9 µg/mL (≈ 6.27 µM). Besides, the MIC with Serra. Marc. ATCC 13880 came to 13 µg/mL (≈ 28.1 µM); with Entero. cloacae HH 31254, 0.7 µg/mL (≈ 1.51 µM); in the test with Proteus morgani 179 it was 1.3 µg/mL (≈ 2.81 µM). Moreover, the ED50 in the test on E. coli 12140 (Escherichia coli, 12140, po, E. coli 12140, p.o.) is 28 mg/kg; in the test with E. coli 12140 (Escherichia coli, 12140, sc, E. coli 12140, s.c.), less than 2 mg/kg; with Kleb. pneumo. 4200 (po, Kleb. pneumo. 4200, p.o.), greater than 50 mg/kg; in the test on Kleb. pneumo. 4200 (sc, Kleb. pneumo. 4200, s.c.), 0.96 mg/kg.
